“Also recorded” adds a separate entry of the source. Read-outs that look alike come from different tables or passages of the source.
What was measured:
[1] = cited from earlier work
N-CAM 180 [2] = assay: Incubation of human occipital cortex membrane and cytosolic fractions with protease inhibitors, N-CAM immunoblot; type: biochemical
From the text: Fresh or frozen human brain cortex is dissected free of pia mater layer and any obvious blood vessels on the surface of the cortex. Pulverize the cortex in a sufficient quantity of liquid Nitrogen to a friable state with mortar and pestle, and accurately weigh out replicate samples of pulverized brain sample while keeping all vessels frozen in dry ice. Place the quantity of protease inhibitor or neuraminidase inhibitor in a PBS buffer of final pH 7.4 and maintain buffer on ice. Add the varying concentrations and combinations of protease inhibitors and/or neuraminidase inhibitors to separate pulverized brain in tubes in a final volume to yield a 20% weight of brain tissue/buffer volume. Allow the tubes to adjust to room temperature, and incubate at standard room temperature conditions for varying time points. The end-point of the assay is accomplished by addition of a 2× denaturing reducing sample buffer such as commercially available and previously published, and heat 3 min at 95 degrees C. Proceed to standard SDS-PAGE and immunoblot conditions to determine the breakdown products of parent molecule N-CAM. Use appropriate control incubations for temperature breakdown and buffer breakdown without protease inhibitors and/or neuraminidase inhibitors. The results can be quantitatively assessed by densitometry of immunoblots as previously published which yields a linear response within a loading range of proteins (˜1-100 μg of protein) depending on gel capacity used and concentrations of antibody and detection substrates which are empirically determined with standard methods. […]
Membrane and cytosolic fractions from human occipital cortex were incubated in the presence of protease inhibitors (10 μM final concentration) for varying lengths of time (typically 2, 4, 8, 16, 32, and 48 hrs at room temperature). An aliquot was analyzed by gel electrophoresis and immunoblotted with N-CAM 3732 antibody. […] The supernatant was labeled “membrane extract.” Protein content of the “cytosolic” and “membrane extract” sample was measured by the micro bicinchoninic acid method (Pierce, Ill.).

[3] = cited from earlier work; remark: listed apart in the source
N-CAM 180 [4] = assay: Neuraminidase treatment of cytosolic and membrane brain extracts, N-CAM immunoblot; type: biochemical, human; conditions: 1.25 U/ml diluted enzyme, 18 hrs at 37° C., FIG. 7A
Description: Membrane “extracts” and “cytosolic” tissue extracts of human occipital cortex were prepared as described^8 with slight modifications^9. Frozen pulverized occipital cortex ˜50 g was suspended in 1000 ml of cold 0.05M Tris buffered saline (TBS, pH 7.4) with protease inhibitors: antipain (4 μg/ml), pepstatin A (2 μg/ml), aprotinin (2 μg/ml), leupeptin (2 μg/ml), and phenyl methyl sulfonyl fluoride (0.1 μg/ml). The solution was homogenized (Tissumizer; Tekmar, Cincinnati Ohio) for 5×10 sec pulses in a 4° C. ice bath and 30 sec cooling interval between pulses. The homogenate was centrifuged for 30 min at 42,000×g at 4° C. The clear supernatant with visible lipid removed was the “cytosolic” fraction. The pellet was resuspended and washed with cold TBS-protease inhibitor cocktail and re-centrifuged at 42,000×g for 30 min at 4° C. […] The supernatant was labeled “membrane extract.” Protein content of the “cytosolic” and “membrane” sample was measured by the micro bicinchoninic acid method (Pierce, Ill.).
Neuraminidase treatment of cytosolic and membrane brain extracts was accomplished by using neuraminidase enzyme from Vibrio cholerae (˜2.49 Units/ml, Fluka) in pH 5.5, 0.15M NaCl, 4 mM CaCl2 that was diluted with 50 mM sodium acetate, 4 mM CaCl2 and 0.2 mM EDTA, (pH 5.0; Buffer A) to 1.25 U/ml. […] Samples were analyzed by immunoblot for N-CAM with antibody 3732. […]

## CC(C)CN(C[C@@H](O)[C@H](Cc1ccccc1)NC(=O)O[C@H]1CCOC1)S(=O)(=O)c1ccc(N)cc1 [Amprenavir]
[1]; high-fat meal
  effect of a high-fat meal on absorption of the drug: decrease the absorption
[1]; of recipients
  severe or life-threatening rash: 1%
[1]; of those who develop a rash
  severe or life-threatening rash: 4%
[1]; patients treated
  severe and life-threatening skin reactions, including Stevens-Johnson syndrome: 1%

## CC(=O)N[C@@H](CC(C)C)C(=O)N[C@@H](CC(C)C)C(=O)N[C@H](C=O)CCCNC(=N)N [leupeptin, Acetyl-leucyl-leucyl-arginal]
N-CAM 180 [2]; 10 μM final concentration, compared with the other protease inhibitors assayed individually
  activity in prevention of the breakdown of N-CAM 180 and subsequent release/accumulation of cN-CAM: most activity; also recorded: most effective
N-CAM 180 [2]; 10 μM, room temperature, over the course of 48 hr, FIG. 8B and C
  inhibition of the increase in cN-CAM: completely inhibited
N-CAM 180 [2]; assayed in human brain
  potency compared to the protease inhibitor cocktail: most potent

## Aprotinin
[3]; clinical trials
  tolerability in humans: generally well tolerated
[3]; patients receiving aprotinin for the first time
  hypersensitivity reactions: <0.1 to 0.6%

## neuraminidase: neuraminidase enzyme from Vibrio cholerae (Fluka)
N-CAM 180 [4]
  effect on N-CAM 180 in membrane extracts: removal of higher MW N-CAM 180
